Data from US20050182122A1, “Method of treating abnormal cell growth using indolinone compounds” (priority 2003, published 2005).
Where “and” joins values, the source holds several entries; their conditions need not be identical. Identical values can stand only once.

What was measured:
blood/plasma half life = type: in vivo
Procedure: Administration of the compound of formula 1, or its active metabolite 2, in an effective dosing regimen, must take into account the long blood/plasma half lives of these two compounds, approximately 40 and 80 hours, respectively, as well as their safety profiles. Thus, there is a need for safe and therapeutically effective dosing regimens for administering the compounds of formula 1 and 2 to a mammal, including a human, for treating abnormal cell growth, such as cancer.

FLT3-ITD xenograft tumor = FLT3-ITD xenograft tumor model; type: in vivo; conditions: pre-clinical experiments
[1] = system: bone marrow engraftment model; assay: bone marrow engraftment model; type: in vivo; conditions: pre-clinical experiments
primary or secondary AML = assay: Example 2: AML patients, clinical activity by WHO criteria; type: in vivo, human; parameters: key to Best Response: NE: not evaluated; PR: partial response; SD: stable disease; PD: Progressive Disease; conditions: for Best Response: AML, one line per patient
Procedure: (§1) Constitutively activating mutations of the receptor FLT3 are present in approximately 30% of patients with AML and correlate with poor prognosis. […] Two dose levels (50 and 75 mg) and 2 schedules (Group A: 4 weeks of treatment followed by a 14 day rest period; and Group B: 4 weeks of treatment followed by a 7 day rest period) were evaluated in 3 cohorts of patients. Flt3 genotyping for ITD and D835 mutations was performed to enable retrospective stratification. Correlative laboratory studies to assess inhibition of target phosphorylation, and modulation of signaling pathways regulating apoptosis and proliferation were performed by Western blot and immunohistochemistry analyses and FL expression and IHC were conducted.

[2] = Example 2: AML patients, toxicities; type: in vivo, human
Procedure: as §1

FLT3 = assay: Example 2: AML patients, FLT3 phosphorylation and expression (Western blot, immunohistochemistry); type: in vivo, human
Procedure: as §1

[3] = system: metastatic renal cell carcinoma (RCC); assay: Example 1: metastatic renal cell carcinoma patients, best response by RECIST; type: in vivo, human
Description: (§2) Eligibility included measurable disease, ECOG performance status of 0 or 1, failure of one prior cytokine-based therapy due to disease progression or toxicity, and adequate cardiac function as defined by normal ejection fraction on MUGA or ECHO. Patients were excluded if they had significant cardiac events within the past 12 months or received more than one prior cytokine regimen.

[4] = Example 1: metastatic renal cell carcinoma patients, adverse events; type: in vivo, human
Description: as §2

[5] = Example 3: solid tumor patients, dose limiting toxicities; type: in vivo, human
Description: (§3) The patients were characterized as follows: 15 male, 13 female; age range 33-78 years; median age 55 years; median PS 0; WHO PS, 0 (22 patients), 1 (3 patients), 2 (3 patients). The number of pretreatment regimens ranged from 0 to 9, with a median of 2. The tumors types (number of patients) were: renal cell carcinoma (4); neuroendocrine tumors (4); colorectal cancer (3); non-small cell lung cancer (2); mesotheliomas (2); uterine carcinoma (2); breast cancer (2); pancreas (2); angiosarcoma (2); esophagus (1); undifferentiated carcinoma of nasopharynx (1); parotid adenocarcinoma (1); melanoma (1); gastrointestinal stromal tumor (1). […] All other trials were dosed with flat doses (i.e., mg). All dosage amounts are free-base equivalents. A plus symbol (+) following the number of cycles indicates the patient was still on study at the date the data were summarized.

solid tumors = assay: Example 3: solid tumor patients, antitumor activity; type: in vivo, human
Description: as §3

[6] = 63 metastatic RCC patients, 50 mg daily orally 4 weeks, 2-week rest
[7] = preliminary safety data N=44, 50 mg daily 4 weeks/2-week rest, mostly grades 1 and 2
[8] = preliminary safety data N=44, without signs of pancreatitis
[9] = 15 AML patients, 50 or 75 mg daily
[10] = 15 AML patients, 50 or 75 mg daily, 4 weeks treatment, 14 or 7 day rest, mainly grade 1-2
[11] = all dosing schedules, 23 evaluable

Work on `CCNCCNC(=O)c1c(C)[nH]c(/C=C2\C(=O)Nc3ccc(F)cc32)c1C` [Compound 2, 5-(5-fluoro-2-oxo-1,2-dihydroindol-(3Z)-ylidenemethyl)-2,4-dimethyl-1H-pyrrole-3-carboxylic acid (2-ethylaminoethyl)-amide] yielded a half-life (blood/plasma half life) of roughly 80 h.

For `CCN(CC)CCNC(=O)c1c(C)[nH]c(/C=C2\C(=O)Nc3ccc(F)cc32)c1C` [Compound 1, 5-(5-fluoro-2-oxo-1,2-dihydroindol-(3Z)-ylidenemethyl)-2,4-dimethyl-1H-pyrrole-3-carboxylic acid (2-diethylaminoethyl)-amide], the half-life (blood/plasma half life) was roughly 40 h, the “efficacy in FLT3-ITD xenograft tumor model” value (FLT3-ITD xenograft tumor) was “dose-dependent efficacy” and the “efficacy in bone marrow engraftment model” value [1] was “dose-dependent efficacy”. For the same compound, the “duration of partial response” value (primary or secondary AML; one patient with FLT3 ITD mutation, Group B (50 mg daily, 4 weeks treatment/7 day rest)) was 4 month, the “tolerability in advanced AML population” value ([2]; 50 mg dose) was “tolerable” and the target inhibition (FLT3; 50 mg dose) was “consistently observed”. For the same compound, the “time to decreased FLT3 protein expression” value (FLT3; patient with FLT3 ITD mutation, Group B, consistent with decreasing blast counts) was no more than 8 days and the “FLT3 phosphorylation after administration” value (FLT3; patient with FLT3 ITD mutation, Group B, similar in 2 other FLT3 mutant patients) was “inhibition of FLT3 phosphorylation”.

With `CCN(CC)CCNC(=O)c1c(C)[nH]c(/C=C2\C(=O)Nc3ccc(F)cc32)c1C` [5-(5-fluoro-2-oxo-1,2-dihydroindol-(3Z)-ylidenemethyl)-2,4-dimethyl-1H-pyrrole-3-carboxylic acid (2-diethylaminoethyl)-amide] the “taken off study for PD” value ([3]; 63 metastatic RCC patients) was “Twelve”, the “Best response by RECIST: confirmed partial, patients” value [3, 6] was 16% and the “Best response by RECIST: progression, patients” value [3, 6] was 27%. For the same compound, the “Best response by RECIST: stable, patients” value [3, 6] was 41%, the “reduction of unidimensional measurement of at least 30%, awaiting confirmation of response status, patients” value [3, 6] was 10% and the “partial responders remaining progression free” value ([3]; of 10 patients with partial response, median follow-up of 4 months from start of therapy) was 9. The “partial responders who progressed” value ([3]; of 10 patients with partial response, progressed at 5 months) was 1 patient, the “taken off study for toxicity” value ([4]; 63 metastatic RCC patients) was 8 patients and the “Grade 3 event: anemia” value ([4]; preliminary safety data N=44) was 5%. For the same compound, the “Grade 3 event: leukocytopenia” value ([4]; preliminary safety data N=44) was 5%, the “Grade 3 event: lymphopenia” value ([4]; preliminary safety data N=44) was 32% and the “Grade 3 event: neutropenia” value ([4]; preliminary safety data N=44) was 9%. For the same compound, the “grade 3 thrombocytopenia” value ([4]; preliminary safety data N=44) was “no patients”, the “adverse event constipation, frequency” value [4, 7] was 34% and the “adverse event diarrhea, frequency” value [4, 7] was 46%. The “adverse event dyspepsia, frequency” value [4, 7] was 30%, the “adverse event fatigue/asthenia, frequency” value [4, 7] was 67% and the “adverse event nausea, frequency” value [4, 7] was 50%. For the same compound, the “adverse event stomatitis, frequency” value [4, 7] was 43%, the “Grade 3 event: elevated amylase” value [4, 8] was 9% and the “Grade 3 event: elevated lipase” value [4, 8] was 23%. For the same compound, the “decreases in left ventricular ejection fraction >20% without clinical symptoms” value ([4]; taken off the study) was “Two”, the “evidence of clinical activity of short duration by WHO criteria” value (primary or secondary AML; [9]) was 7 patients and the “morphologic response (less than 5% blasts in bone marrow, absence of blasts in peripheral blood), number of patients” value (primary or secondary AML; [9]) was 1. For the same compound, the “partial responses (reduction of blasts by more than 50% in blood and bone marrow), number of patients” value (primary or secondary AML; [9]) was 6, the “Best Response” value (primary or secondary AML; 50 mg daily, schedule 4/1 weeks treatment/rest) was “SD (3×) and PR (2×)” and the “Best Response” value (primary or secondary AML; 50 mg daily, schedule 4/2 weeks treatment/rest) was “PD (3×) and PR (3×) and Morph. R”. The “Best Response” value (primary or secondary AML; 75 mg daily, schedule 4/2 weeks treatment/rest) was “PR”, the “rebound of blasts during the treatment-free (rest) period, patients” value (primary or secondary AML; of the 7 patients with clinical activity) was 2 and the “responding patients with mutated FLT3 (ITD or D835)” value (primary or secondary AML; of the responding patients) was “Three”. The “Grade 3 drug related fatigue, patients” value [2, 9] was 20%, the “toxicity: diarrhea” value [2, 10] was 13% and the “toxicity: fatigue” value [2, 10] was 27%. The “toxicity: nausea” value [2, 10] was 33%, the “toxicity: vomiting” value [2, 10] was 13% and the “dose limiting toxicity, fatigue grade 4 (number)” value ([2]; at 75 mg) was “One”. The “patients with dose limiting toxicities at cycle 1” value ([5]; 50 mg daily patients) was 2 of 9, the “dose limiting toxicity grade 3 edema” value ([5]; 50 mg daily patients, cycle 1) was 1 patient and the “dose limiting toxicity grade 4 thrombocytopenia” value ([5]; 50 mg daily patients, cycle 1) was 1 patient. The “patients with dose limiting toxicities at cycle 1” value ([5]; 75 mg daily patients) was 5 of 11, the “dose limiting toxicity grade 3 asthenia” value ([5]; 75 mg daily patients, cycle 1) was 3 patients and the “dose limiting toxicity grade 3 hypertension” value ([5]; 75 mg daily patients, cycle 1) was 1 patient. For the same compound, the “dose limiting toxicity grade 5 tumor necrosis” value ([5]; 75 mg daily patients, cycle 1) was 1 patient, the “patients with dose limiting toxicities at cycle 1” value ([5]; 100 mg daily patients) was 2 of 3 and the “dose limiting toxicity grade 3 asthenia” value ([5]; 100 mg daily patients, cycle 1) was 1 patient. The “dose limiting toxicity grade 3 hypertension” value ([5]; 100 mg daily patients, cycle 1) was 1 patient, the course of asthenia ([5]; cycle 1) was “progressively from grade 1 at week 1 to grade 3-4 at week 4” and the main dose-limiting toxicity ([5]; doses greater than or equal to 50 mg, appeared during cycle 1) was “Asthenia”. For the same compound, the “rest period required for reversal of grade 3 asthenia” value ([5]; human, in vivo) was 2-4 week, the “dose limiting toxicity at cycle 1” value ([5]; the 150 mg daily patient) was “grade 3 asthenia” and the “Tumor Progression” value (solid tumors; 50 mg Q2D, 3 patients) was 3. The “Tumor Response (#)” value (solid tumors; 50 mg Q2D, 3 patients) was 0, the “Tumor Stabilization (#)” value (solid tumors; 50 mg Q2D, 3 patients) was 0 and the “Tumor Stabilization, Time” value (solid tumors; 50 mg QD) was 8 months. The “Tumor Progression” value (solid tumors; 50 mg QD, 6 patients) was 5, the “Tumor Response (#)” value (solid tumors; 50 mg QD, 6 patients) was 0 and the “Tumor Stabilization (#)” value (solid tumors; 50 mg QD, 6 patients) was 1. For the same compound, the “Tumor Progression” value (solid tumors; 75 mg QD, 9 patients) was 0, the “Tumor Response (#)” value (solid tumors; 75 mg QD, 9 patients) was 3 and the “Tumor Stabilization (#)” value (solid tumors; 75 mg QD, 9 patients) was 2. For the same compound, the “Tumor Stabilization, Time” value (solid tumors; 75 mg QD, one value per patient) was 4 months and 5 months, the “Tumor Progression” value (solid tumors; 100 mg Q2D, 1 patient) was 0 and the “Tumor Response (#)” value (solid tumors; 100 mg Q2D, 1 patient) was 1. The “Tumor Stabilization (#)” value (solid tumors; 100 mg Q2D, 1 patient) was 0, the “Tumor Stabilization, Time” value (solid tumors; 100 mg QD) was 6 months and the “Tumor Progression” value (solid tumors; 100 mg QD, 3 patients) was 0. The “Tumor Response (#)” value (solid tumors; 100 mg QD, 3 patients) was 2, the “Tumor Stabilization (#)” value (solid tumors; 100 mg QD, 3 patients) was 1 and the “Tumor Stabilization, Time” value (solid tumors; 150 mg QD) was 3 months. For the same compound, the “Tumor Progression” value (solid tumors; 150 mg QD, 1 patient) was 0, the “Tumor Response (#)” value (solid tumors; 150 mg QD, 1 patient) was 0 and the “Tumor Stabilization (#)” value (solid tumors; 150 mg QD, 1 patient) was 1. The “Tumor Progression, totals” value (solid tumors; [11]) was 8/23, the “Tumor Response (#), totals” value (solid tumors; [11]) was 6/23 and the “Tumor Stabilization (#), totals” value (solid tumors; [11]) was 5/23.
